According to patent US20040235809A1, “Epoxy steroidal aldosterone antagonist and beta-adremergic antagonist combination therepy for treatment of congestive heart failure” (priority 2000, published 2004):

Key:
[1] = system: patients with mild to moderate hypertension; assay: Example 19 clinical study: eplerenone versus placebo co-administered with a calcium-channel blocker; format: in vivo, human
Source text: This multicenter, randomized, double-blind, placebo-controlled, placebo run-in, parallel group trial involving a minimum of 120 randomized patients with hypertension (seated diastolic blood pressure [seDBP]≧95 mmHg and <110 mmHg and seated systolic BP [seSBP]<180 mmHg while taking a CCB) will consist of a one- to two-week pretreatment screening period followed by a two- to four-week single-blind placebo run-in period and an 8-week double-blind treatment period. Eligible patients will be patients currently receiving a CCB as part of their antihypertensive medication. […] The dose will not be changed for patients with adequate BP control. […] If the dose has been increased at Week 2, the patient will be reassessed at Week 6. […] If BP is uncontrolled at Week 6 and the dose has been increased at Week 2 or Week 4, the patient must be withdrawn from the study. If symptomatic hypotension (i.e., lightheadedness, dizziness, or syncope associated with low BP) occurs at any time during the study, or if DBP is ≧110 mmHg or SBP is ≧180 mmHg at any time during the trial, the patient must be withdrawn. Patients will receive study medication for a total of 8 weeks.
Patients will return to the clinic for evaluations at Weeks 0 (baseline), 2, 4, 6, 8, and 9. Heart rate, BP, adverse events and concomitant medication will be assessed at each visit. Hematology and biochemistry evaluations and urinalysis for safety will be at Weeks 0, 8, and 9. Serum potassium levels will be determined at Weeks 0 (baseline), 2, 4, 6, 8, and 9. Plasma renin, serum aldosterone, and plasma cortisol will be determined at Weeks 0 and 8. A 12-lead electrocardiogram and physical examination will be done at screening and at Week 9.
The study will consist of a one- to two-week pretreatment screening period followed by a two- to four-week single-blind placebo run-in treatment period, prior to randomization to an eight-week double-blind treatment period.
Eligible patients will be either currently receiving a CCB alone, or receiving a CCB as part of their antihypertensive medication. […] The dose will not be changed for patients with adequate BP control. […] If the dose has been increased at Week 2, the patient will be reassessed at Week-6. The dose of study medication will not be changed for patients with adequate BP control. […] If BP is uncontrolled at Week 6 and the dose has been increased at Week 2 or Week 4, the patient must be withdrawn from the study. The dose of study medication will not be changed for patients with adequate BP control. If symptomatic hypotension (i.e., lightheadedness, dizziness, or syncope associated with low BP) occurs at any time during the study, or if DBP is ≧110 mmHg or SBP is ≧180 mmHg at any time during the study, the patient must be withdrawn. Patients will receive study medication for a total of eight weeks.
Patients will return to the clinic for evaluations at Weeks 0, 2, 4, 6, 8, and 9. Heart rate, BP, adverse events and concomitant medication will be assessed at each visit. Hematology and biochemistry evaluations and urinalysis for safety will be at Weeks 0, 8, and 9. Serum potassium levels will be determined at Weeks 0, 2, 4, 6, 8, and 9. Plasma renin, serum aldosterone, and plasma cortisol will be determined at Weeks 0 and 8. […]
BP evaluations will be analyzed at each visit using two-way analysis of covariance (ANCOVA) with the baseline measurement as the covariate and treatment and center as factors. […]

hypertensive rats = assay: Assay C: hypertensive rat model (renal artery clip); format: in vivo; details: combination of beta-adrenergic antagonist and eplerenone versus either component alone, after 12 to 24 weeks
Source text: Assay “C”: Hypertensive Rat Model Male rats are made hypertensive by placing a silver clip with an aperture of 240 microns on the left renal artery, leaving the contralateral kidney untouched. Sham controls undergo the same procedure but without attachment of the clip. One week prior to the surgery, animals to be made hypertensive are divided into separate groups and drug treatment is begun. […] After 12 to 24 weeks, systolic and diastolic blood pressure, left ventricular end diastolic pressure, left ventricular dP/dt, and heart rate are evaluated. The hearts are removed, weight, measured and fixed in formalin. Collagen content of heart sections are evaluated using computerized image analysis of picrosirius stained sections.

[2] = system: rats with coronary artery ligation; assay: Assay D: myocardial infarction rat model; format: in vivo; details: combination of beta-adrenergic antagonist and eplerenone versus either component alone, after six weeks
Source text: Assay “D” Myocardial Infarction Rat Model: male rats are anesthetized and the heart is exteriorized following a left sided thoracotomy. The left anterior descending coronary artery is ligated with a suture. The thorax is closed and the animal recovers. Sham animals have the suture passed through without ligation. One week prior to the surgery, animals to undergo infraction are divided into separate groups and drug treatment is begun. […] After six weeks, systolic and diastolic blood pressure, left ventricular end diastolic pressure, left ventricular dP/dt, and heart rate are evaluated. The hearts are removed, weight, measured and fixed in formalin. Collagen content of heart sections are evaluated using computerized image analysis of picrosirius stained sections.

animal models = details: cited from earlier work
[3] = eplerenone plus CCB compared to CCB and placebo

Row | SMILES | systolic blood pressure ([1]; eplerenone 50-100 mg plus fixed dose CCB versus CCB plus placebo, eight weeks) | serious adverse events ([1]; eplerenone added to CCB therapy) | active renin levels [1, 3] | aldosterone levels [1, 3] | change in mean diastolic blood pressure ([1]; eplerenone plus CCB versus CCB plus placebo, eight weeks) | cardiac performance (hypertensive rats) | cardiac performance [2] | myocardial fibrosis (animal models; D. Klug et al 1993) | fibrosis (animal models; irrespective of left ventricular hypertrophy and hypertension, C. G. Brilla et al 1993)
1 | COC(=O)[C@@H]1CC2=CC(=O)CC[C@]2(C)[C@@]23O[C@@H]2C[C@@]2(C)[C@@H](CC[C@@]24CCC(=O)O4)[C@H]13 [eplerenone, Pregn-4-ene-7,21-dicarboxylic acid, 9,11-epoxy-17-hydroxy-3-oxo-,γ-lactone, methyl ester, (7α,11α,17β)-] | significant reduction | no serious adverse events | greater increase | greater increase | greater for the dual therapy group, compared to monotherapy, but this difference did not reach statistical significance | improvements in cardiac performance | improvements in cardiac performance | – | –
2 | CC(=O)S[C@@H]1CC2=CC(=O)CC[C@]2(C)[C@H]2CC[C@@]3(C)[C@@H](CC[C@@]34CCC(=O)O4)[C@H]12 [spironolactone] | – | – | – | – | – | – | – | prevents myocardial fibrosis | prevent fibrosis
